Consider four compounds from patent US5929037A, “Modified α-D-Glc.rho.-(1-2)-α-D-Glc.rho.-(1-3)-α-D-Glc.rho.-ana logues” (Alberta Research Council, priority 1995, dated 1999).

A word on the inhibition: it is the change of the read-out against control, counted positive when it falls.

Test [1] concerns glucosidase. The settings on record: cited from earlier work.
In test [2] the target is T1, glucosidase I (Bos taurus, UniProt A0A3Q1M9D9).
T1 construct: Glucosidase I was solubilized from calf pancreas microsomes; from tissue
T1 sequence (A0A3Q1M9D9 1-839): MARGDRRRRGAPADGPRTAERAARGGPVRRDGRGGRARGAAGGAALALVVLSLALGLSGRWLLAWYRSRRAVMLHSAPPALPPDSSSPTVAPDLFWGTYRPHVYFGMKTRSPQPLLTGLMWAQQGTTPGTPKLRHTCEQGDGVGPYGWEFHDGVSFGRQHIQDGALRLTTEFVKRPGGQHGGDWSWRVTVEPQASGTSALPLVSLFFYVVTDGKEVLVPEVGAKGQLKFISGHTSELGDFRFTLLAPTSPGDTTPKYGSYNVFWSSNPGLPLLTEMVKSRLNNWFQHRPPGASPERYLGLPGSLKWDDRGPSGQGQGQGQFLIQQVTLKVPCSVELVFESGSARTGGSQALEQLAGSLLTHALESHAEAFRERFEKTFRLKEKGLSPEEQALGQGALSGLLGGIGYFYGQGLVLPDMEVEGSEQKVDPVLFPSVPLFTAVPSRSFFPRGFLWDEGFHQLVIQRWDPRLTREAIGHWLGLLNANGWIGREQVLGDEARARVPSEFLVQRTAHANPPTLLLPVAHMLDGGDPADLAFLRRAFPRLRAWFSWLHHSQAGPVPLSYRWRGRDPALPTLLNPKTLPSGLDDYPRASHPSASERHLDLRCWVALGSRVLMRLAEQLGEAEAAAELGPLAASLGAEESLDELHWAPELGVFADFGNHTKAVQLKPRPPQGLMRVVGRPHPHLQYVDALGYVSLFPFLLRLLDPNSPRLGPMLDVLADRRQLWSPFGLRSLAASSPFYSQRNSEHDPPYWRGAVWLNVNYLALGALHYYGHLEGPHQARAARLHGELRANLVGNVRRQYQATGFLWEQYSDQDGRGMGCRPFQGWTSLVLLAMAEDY
Put plainly: Assay for glucosidase I activity (14C-Glc3Man9GlcNAc2 substrate, ConA-Sepharose, scintillation counting). The settings on record: affinity purified glucosidase I from calf pancreas microsomes; for inhibition at 1000 µM: at 1 mM concentration, read-out: inhibition of glycosidase I activity. Format: biochemical. Here is the method: Some of the compounds which are modified analogues of the trisaccharides corresponding to the end tail of precursor oligosaccharides Glc3 Man9 GlcNAc2 -PP-Dol, were evaluated as inhibitors of glucosidase I activity. Glucosidase I was purified by a literature procedure as follows. To prepare an affinity matrix, carboxypentyl-deoxynojirimycin was coupled with Affigel 102 according to Shailubhai et al^19. Glucosidase I was solubilized from calf pancreas microsomes, and purified from glucosidase II activity by affinity chromatography according to the same authors.
^14 C-labelled Glc3 Man9 GlcNAc2 -PP-Dol was prepared by the incubation of UDP-[^14 C]Glc with calf pancreas microsomes as described by Herscovien et al^40. Glc3 Man9 GlcNAc2 was released by mild acid hydrolysis and purified by BioGel P4 chromatography.
Affinity purified glucosidase I was assayed as described by Saunier et al.^41 by adsorption of undigested substrate and oligosaccharide product to ConA-Sepharose and scintillation counting of [^14 C]Glc in the column eluent. Oligosaccharides as potential inhibitors were evaluated using castanospermine as a baseline inhibitor.

Turning to `OC[C@H]1NC[C@H](O)[C@@H](O)[C@@H]1O` [deoxynojirimycin], the “concentration required to induce the inhibitory effect in vitro” value in test [1] was “at least 1 mmol/l”. For the compound `COC(=O)CCCCCCCCO[C@H]1O[C@H](CO)[C@@H](O)[C@H](O[C@H]2O[C@H](CO)[C@@H](O)[C@H](O)[C@H]2O[C@H]2O[C@H](CO)[C@@H](O)C[C@H]2O)[C@H]1O` [Compound 45, 8-methoxycarbonyloctyl 3-O-[2-O-(3-deoxy-α-D-glucopyranosyl)-α-D-glucopyranosyl]-α-D-glucopyranoside], the inhibition at 1000 µM in test [2] was found to be 50%. For `COC(=O)CCCCCCCCO[C@H]1O[C@H](CO)[C@@H](O)[C@H](O[C@H]2O[C@H](CO)[C@@H](O)[C@H](O)[C@H]2O[C@H]2O[C@H](CO)[C@@H](O)[C@H](O)[C@H]2O)[C@H]1O` [Compound 40, 8-methoxycarbonyloctyl 3-O-[2-O-(α-D-glucopyranosyl)-α-D-glucopyranosyl]-α-D-glucopyranoside], the inhibition at 1000 µM in test [2] stood at 100%. In the case of `COC(=O)CCCCCCCCO[C@H]1O[C@H](CO)[C@@H](O)[C@H](O[C@H]2O[C@H](CO)[C@@H](O)[C@H](O)[C@H]2O[C@H]2O[C@H](C)[C@@H](O)[C@H](O)[C@H]2O)[C@H]1O` [Compound 49, 8-Methoxycarbonyl 3-O-[2-O-(6deoxy-α-D-glucopyranosyl)-α-D-glucopyranosyl]-α-D-glucopyranoside], in test [2], the “glucosidase I inhibitory activity (result in words)” value is given as “completely eliminated”.
